16 compounds from PubChem BioAssay AID328 (DTP/NCI, 2004) can be followed below.

“And” between values parts separate entries of the source, which are not always exact repeats. Identical values can stand only once. Inconclusive results and toxic doses are left out.

The experiment has as its system BDF1 mice, P388 leukemia ip, median survival T/C. In words: NCI In Vivo Anticancer Drug Screen. Data for tumor model P388 Leukemia (intraperitoneal) in B6D2F1 (BDF1) mice. The note with it: endpoint: median survival time, higher = longer survival. The method in brief: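 Survival ratio, drug arm over vehicle arm, in mice with a transplanted tumour.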
Setting [1] is: dose: 12.5 mg/kg/injection, schedule: Q01DX009 (ip), vehicle: water.
Setting [2] is: dose: 12.5 mg/kg/injection, schedule: Q04DX003 (ip), vehicle: water.
The mark [3] stands for this setting: dose: 25.0 mg/kg/injection, schedule: Q01DX009 (ip), vehicle: water.
Where [4] appears, read: dose: 25.0 mg/kg/injection, schedule: Q04DX003 (ip), vehicle: water.
[5] abbreviates: dose: 50.0 mg/kg/injection, schedule: Q04DX003 (ip), vehicle: water.
Setting [6] is: dose: 50.0 mg/kg/injection, schedule: Q01DX009 (ip), vehicle: saline with Tween-80.
[7] abbreviates: dose: 100.0 mg/kg/injection, schedule: Q01DX009 (ip), vehicle: saline with Tween-80.
The mark [8] stands for this setting: dose: 200.0 mg/kg/injection, schedule: Q01DX009 (ip), vehicle: saline with Tween-80.
[9] abbreviates: dose: 100.0 mg/kg/injection, schedule: Q01DX001 (ip), vehicle: saline.
Setting [10] is: dose: 200.0 mg/kg/injection, schedule: Q01DX001 (ip), vehicle: saline.

As for `N#CC(Br)(Br)C(N)=O`, the T/C was 115 % of control (dose: 2.5 mg/kg/injection, schedule: Q01DX009 (ip), vehicle: saline) and 102 % of control (dose: 5.0 mg/kg/injection, schedule: Q01DX009 (ip), vehicle: saline).
`CCc1cccc(CC)c1N1C(=O)C=CC1=O`: the T/C is 114 % of control (dose: 1.56 mg/kg/injection, schedule: Q01DX009 (ip), vehicle: saline with Tween-80); 100 % of control (dose: 3.13 mg/kg/injection, schedule: Q01DX009 (ip), vehicle: saline with Tween-80); 106 % of control (dose: 6.25 mg/kg/injection, schedule: Q01DX009 (ip), vehicle: saline with Tween-80); 99 % of control (dose: 12.5 mg/kg/injection, schedule: Q01DX009 (ip), vehicle: saline with Tween-80).
Consider `O=C1/C(=C\c2ccccc2)C(Br)c2ccccc21` (stereo not drawn), for which the T/C (dose: 1.56 mg/kg/injection, schedule: Q01DX009 (ip), vehicle: water) is 87 % of control; the T/C (dose: 3.12 mg/kg/injection, schedule: Q01DX009 (ip), vehicle: water) was 108 % of control; the T/C (dose: 6.25 mg/kg/injection, schedule: Q01DX009 (ip), vehicle: water) was 108 % of control; the T/C (dose: 6.25 mg/kg/injection, schedule: Q04DX003 (ip), vehicle: water) is 100 % of control; the T/C under setting [1] was 110 % of control; the T/C under setting [2] was 105 % of control. In addition, the T/C is, setting by setting: under setting [3], 110 % of control; under setting [4], 105 % of control; under setting [5], 91 % of control.
As for `C=CC(C)(C(=O)O)C(C)C` (stereo not drawn), the T/C is, setting by setting: under setting [6], 101 % of control; under setting [7], 100 % of control; under setting [8], 97 % of control.
On to `COC1C(OC(=O)c2ccc(C)[nH]2)C(O)C(Oc2ccc3c(O)c(NC(=O)c4ccc(O)c(CC=C(C)C)c4)c(=O)oc3c2Cl)OC1(C)C` (stereo not drawn), for which the T/C runs as follows: (dose: 50.0 mg/kg/injection, schedule: Q01DX009 (ip), vehicle: other) 106 % of control; (dose: 100.0 mg/kg/injection, schedule: Q01DX009 (ip), vehicle: other) 104 % of control; (dose: 200.0 mg/kg/injection, schedule: Q01DX009 (ip), vehicle: other) 115 % of control.
Take `CC(C)(C)/C([O-])=N/[N+](C)(C)Cc1ccccc1`: the T/C runs as follows: under setting [9], 109 % of control; under setting [10], 104 % of control; (dose: 400.0 mg/kg/injection, schedule: Q01DX001 (ip), vehicle: saline) 104 % of control.
For the compound `O=C(/C=C(/c1ccccc1)P(=O)(c1ccccc1)c1ccccc1)c1ccccc1`, the T/C reads like this: under setting [7], 100 % of control; under setting [8], 95 % of control; (dose: 400.0 mg/kg/injection, schedule: Q01DX009 (ip), vehicle: saline with Tween-80) 100 % of control.
As to `CN1CCN(c2cc3c(cc2[N+](=O)[O-])no[n+]3[O-])CC1`, the T/C reads like this: (dose: 15.0 mg/kg/injection, schedule: Q01DX009 (ip), vehicle: saline with Tween-80) 123 % of control; (dose: 30.0 mg/kg/injection, schedule: Q01DX009 (ip), vehicle: saline with Tween-80) 120 % of control; (dose: 60.0 mg/kg/injection, schedule: Q01DX009 (ip), vehicle: saline with Tween-80) 103 % of control.
As to `COc1cc(CCC(NC(C)=O)c2cccc(O)c(=O)c2)cc(OC)c1OC` (stereo not drawn), the T/C reads like this: (dose: 25.0 mg/kg/injection, schedule: Q01DX009 (ip), vehicle: saline with Tween-80) 90 % of control; under setting [6], 96 % of control; under setting [7], 90 % of control; under setting [8], 91 % of control.
With `COC(=O)C(CC(=O)c1ccccc1)NCc1ccccc1` (stereo not drawn), the T/C is, setting by setting: (dose: 100.0 mg/kg/injection, schedule: Q01DX001 (ip), vehicle: saline with Tween-80) 100 % of control; (dose: 200.0 mg/kg/injection, schedule: Q01DX001 (ip), vehicle: saline with Tween-80) 95 % of control; (dose: 400.0 mg/kg/injection, schedule: Q01DX001 (ip), vehicle: saline with Tween-80) 100 % of control.
For `CC1(C)OC(COCCOCCOCCCO)C(COCCOCCOCCCO)O1` (stereo not drawn), the T/C reads like this: under setting [9], 112 % of control; (dose: 100.0 mg/kg/injection, schedule: Q01DX001 (ip), vehicle: suspension in saline) 100 % of control; under setting [10], 111 % of control; (dose: 200.0 mg/kg/injection, schedule: Q01DX001 (ip), vehicle: suspension in saline) 98 % of control; (dose: 400.0 mg/kg/injection, schedule: Q01DX001 (ip), vehicle: suspension in saline) 120 % of control; (dose: 800.0 mg/kg/injection, schedule: Q01DX001 (ip), vehicle: suspension in saline) 100 % of control.
With `CCC1(O)CC2CN(CCc3c([nH]c4ccccc34)C(C(=O)OC)(c3cc4c(cc3OC)N(C)C3C(O)(C(=O)NCCSSCCNC(=O)C5(O)C(O)C6(CC)C=CCN7CCC8(c9cc(C%10(C(=O)OC)CC%11CN(CCc%12c%10[nH]c%10ccccc%12%10)CC(O)(CC)C%11)c(OC)cc9N(C)C58)C76)C(O)C5(CC)C=CCN6CCC43C65)C2)C1` (stereo not drawn), the T/C reads like this: (dose: 250.0 micrograms/kg/injection, schedule: Q04DX003 (ip), vehicle: saline) 179 % of control; (dose: 432.0 micrograms/kg/injection, schedule: Q04DX003 (ip), vehicle: saline) 162 % of control; (dose: 500.0 micrograms/kg/injection, schedule: Q04DX003 (ip), vehicle: saline) 185 % of control; (dose: 648.0 micrograms/kg/injection, schedule: Q04DX003 (ip), vehicle: saline) 268 % of control; (dose: 720.0 micrograms/kg/injection, schedule: Q04DX003 (ip), vehicle: saline) 164 % of control; (dose: 1000.0 micrograms/kg/injection, schedule: Q04DX003 (ip), vehicle: saline) 224 % of control. The T/C was 244 % of control (dose: 1080.0 micrograms/kg/injection, schedule: Q04DX003 (ip), vehicle: saline); 171 % of control (dose: 1200.0 micrograms/kg/injection, schedule: Q04DX003 (ip), vehicle: saline); 155 % of control (dose: 1800.0 micrograms/kg/injection, schedule: Q04DX003 (ip), vehicle: saline); 221 % of control (dose: 2000.0 micrograms/kg/injection, schedule: Q04DX003 (ip), vehicle: saline).
With `CCc1nc2nc(C)cc(C)n2n1`, the T/C runs as follows: (dose: 12.5 mg/kg/injection, schedule: Q01DX009 (ip), vehicle: saline) 91 % of control; (dose: 25.0 mg/kg/injection, schedule: Q01DX009 (ip), vehicle: saline) 89 % of control; (dose: 50.0 mg/kg/injection, schedule: Q01DX009 (ip), vehicle: saline) 97 % of control and 120 % of control; (dose: 100.0 mg/kg/injection, schedule: Q01DX009 (ip), vehicle: saline) 86 % of control and 91 % of control; (dose: 200.0 mg/kg/injection, schedule: Q01DX009 (ip), vehicle: saline) 104 % of control.
For `O=c1[nH]c2ccccc2c(=O)n1C1CCCCC1`, the T/C runs as follows: under setting [1], 111 % of control; under setting [2], 96 % of control; under setting [3], 111 % of control; under setting [4], 100 % of control; under setting [5], 107 % of control; (dose: 100.0 mg/kg/injection, schedule: Q01DX009 (ip), vehicle: water) 106 % of control. For the same compound, the T/C (dose: 100.0 mg/kg/injection, schedule: Q04DX003 (ip), vehicle: water) was 105 % of control; the T/C (dose: 200.0 mg/kg/injection, schedule: Q01DX009 (ip), vehicle: water) was 101 % of control; the T/C (dose: 400.0 mg/kg/injection, schedule: Q01DX009 (ip), vehicle: water) is 101 % of control.
Regarding `CN(C)c1ccc(-c2nc3ccccn3c2N)cc1`, the T/C (dose: 1.56 mg/kg/injection, schedule: Q01DX009 (ip), vehicle: saline) is 105 % of control; the T/C (dose: 3.13 mg/kg/injection, schedule: Q01DX009 (ip), vehicle: saline) was 96 % of control; the T/C (dose: 6.25 mg/kg/injection, schedule: Q01DX009 (ip), vehicle: saline) was 113 % of control.
As for `ClC(c1ccccc1)(c1ccccc1)c1ccccc1`, the T/C (dose: 100.0 mg/kg/injection, schedule: Q04DX003 (ip), vehicle: other) is 100 % of control; the T/C (dose: 200.0 mg/kg/injection, schedule: Q04DX003 (ip), vehicle: other) is 108 % of control; the T/C (dose: 400.0 mg/kg/injection, schedule: Q04DX003 (ip), vehicle: other) was 104 % of control.
